Results as given in ChEMBL document CHEMBL1201862, “PubChem BioAssay data set” (2004).
Calls of active or inactive are those of the source.

Legend:
[1] = Luminescence Cell-Based Dose Confirmation HTS to Identify Activators of 5'UTR Stem-Loop Driven Alpha-Synuclein mRNA Translation in H4 Neuroglioblastoma Cells. [Related pubchem assays: 1829 (Project Summary), 1814 (Primary HTS)]; type: functional
[2] = Luminescence Cell-Based Dose Response HTS to Identify Activators of Luciferase Translation or Activity in H4 […] Cells. [Related pubchem assays: 1829 (Project Summary), 1814 (Primary HTS)]; type: functional
[3] = tested on: H4; test: Luminescence Cell-Based Dose Response HTS to Identify Activators of 5'UTR Stem-Loop Driven Prion Protein mRNA Translation in H4 Neuroglioblastoma Cells. [Related pubchem assays: 1829 (Project Summary), 1814 (Primary HTS)]; type: functional; settings: Homo sapiens
[4] = intracellular Trypanosoma cruzi inhibitors in host cells – cell-based, plate reader, cherry-pick samples, set 3, dose response (AID 651818); type: functional;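 note: compounds incubated with infected cells for about four days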
[5] = inhibitors of firefly luciferase expression or activity, dose response, H4 neuroglioma cells, luminescence (AID 1990); type: functional, cell-based
[6] = target: Cytochrome P450 2D6 (Homo sapiens, UniProt P10635);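 note: CYP2D6 member of a cytochrome P450 panel assay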
Cytochrome P450 2D6, sequence (P10635 whole entry): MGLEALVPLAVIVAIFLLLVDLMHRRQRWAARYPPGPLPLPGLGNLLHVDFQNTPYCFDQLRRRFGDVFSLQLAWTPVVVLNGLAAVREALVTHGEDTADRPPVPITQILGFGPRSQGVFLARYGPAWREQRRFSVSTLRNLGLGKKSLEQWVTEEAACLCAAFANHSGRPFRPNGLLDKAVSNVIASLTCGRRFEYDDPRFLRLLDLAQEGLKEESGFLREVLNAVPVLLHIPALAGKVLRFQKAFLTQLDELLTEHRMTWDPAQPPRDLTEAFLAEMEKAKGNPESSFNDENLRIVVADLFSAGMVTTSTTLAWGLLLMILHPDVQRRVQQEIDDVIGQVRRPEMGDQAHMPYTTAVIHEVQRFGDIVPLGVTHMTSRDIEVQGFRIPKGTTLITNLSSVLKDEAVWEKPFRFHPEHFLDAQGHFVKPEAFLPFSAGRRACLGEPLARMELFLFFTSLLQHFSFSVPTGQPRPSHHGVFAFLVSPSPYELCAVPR

[7] = Luminescence Cell-Based Dose Response HTS to Identify Inhibitors of 5'UTR Stem-Loop Driven Prion Protein mRNA Translation in H4 Neuroglioblastoma Cells. [Related pubchem assays: 1827 (Project Summary), 1813 (Primary HTS)]; type: functional
[8] = target: T1, Cytochrome P450 1A2 (Homo sapiens, UniProt P05177);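 note: PubChem cytochrome P450 panel assay, CYP1A2 panel member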
T1 sequence (P05177 whole entry): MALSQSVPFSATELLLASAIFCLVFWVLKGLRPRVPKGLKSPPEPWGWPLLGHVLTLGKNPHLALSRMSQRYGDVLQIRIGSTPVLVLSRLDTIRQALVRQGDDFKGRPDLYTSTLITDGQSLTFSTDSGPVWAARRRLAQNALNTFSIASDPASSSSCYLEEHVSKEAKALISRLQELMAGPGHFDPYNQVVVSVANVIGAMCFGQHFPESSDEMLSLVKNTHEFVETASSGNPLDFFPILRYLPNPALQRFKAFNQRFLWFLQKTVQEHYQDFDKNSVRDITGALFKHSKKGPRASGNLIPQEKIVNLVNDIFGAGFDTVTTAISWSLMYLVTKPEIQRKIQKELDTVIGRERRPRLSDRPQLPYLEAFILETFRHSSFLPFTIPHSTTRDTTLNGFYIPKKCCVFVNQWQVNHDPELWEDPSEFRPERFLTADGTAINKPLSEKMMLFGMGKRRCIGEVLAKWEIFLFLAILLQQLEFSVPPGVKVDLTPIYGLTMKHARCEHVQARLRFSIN

[9] = inhibitors of SNCA 5'UTR-driven reporter translation, confirmation, H4 neuroglioma cells, luminescence (AID 1988); type: functional, cell-based
[10] = target: T2, Polyadenylate-binding protein 1 (Homo sapiens, UniProt P11940); test: PABP1 MLLE–PAM2 interaction inhibitors, dose response, miRNA deadenylation inhibitor project, biochemical, fluorescence polarization, Cy5-PAM2 peptide, secondary (AID 602260); type: functional; settings: read-out: IC50_Mean
T2 sequence (P11940 whole entry): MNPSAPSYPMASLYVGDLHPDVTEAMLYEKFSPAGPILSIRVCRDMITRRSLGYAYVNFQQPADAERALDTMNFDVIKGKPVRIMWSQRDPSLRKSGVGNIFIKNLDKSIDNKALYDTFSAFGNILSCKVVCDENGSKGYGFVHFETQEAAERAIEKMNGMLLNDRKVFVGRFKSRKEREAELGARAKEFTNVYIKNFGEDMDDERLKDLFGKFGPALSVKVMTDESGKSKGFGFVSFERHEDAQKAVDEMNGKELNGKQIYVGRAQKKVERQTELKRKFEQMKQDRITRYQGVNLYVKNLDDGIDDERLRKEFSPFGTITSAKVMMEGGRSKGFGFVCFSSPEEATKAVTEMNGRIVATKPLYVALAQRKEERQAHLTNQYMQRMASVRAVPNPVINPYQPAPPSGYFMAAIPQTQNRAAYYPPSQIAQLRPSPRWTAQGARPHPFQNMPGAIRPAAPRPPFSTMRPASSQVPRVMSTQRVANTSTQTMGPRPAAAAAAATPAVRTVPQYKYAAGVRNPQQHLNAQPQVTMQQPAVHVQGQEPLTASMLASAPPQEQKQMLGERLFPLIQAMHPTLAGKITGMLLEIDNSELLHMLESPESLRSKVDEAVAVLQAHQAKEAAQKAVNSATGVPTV

[11] = target: T2, Polyadenylate-binding protein 1; test: PABP1 MLLE–PAM2 binding inhibitor potency, dose response, biochemical, fluorescence polarization, FITC-PAM2 peptide (AID 602259); type: functional; settings: read-out: IC50_Mean
[12] = target: T3, Replicative DNA helicase DnaB (Mycobacterium tuberculosis, UniProt P9WMR3); test: DnaB intein splicing inhibitors, dose response, biochemical, cell-free fluorescence (AID 449749); type: functional
T3 sequence (P9WMR3 whole entry): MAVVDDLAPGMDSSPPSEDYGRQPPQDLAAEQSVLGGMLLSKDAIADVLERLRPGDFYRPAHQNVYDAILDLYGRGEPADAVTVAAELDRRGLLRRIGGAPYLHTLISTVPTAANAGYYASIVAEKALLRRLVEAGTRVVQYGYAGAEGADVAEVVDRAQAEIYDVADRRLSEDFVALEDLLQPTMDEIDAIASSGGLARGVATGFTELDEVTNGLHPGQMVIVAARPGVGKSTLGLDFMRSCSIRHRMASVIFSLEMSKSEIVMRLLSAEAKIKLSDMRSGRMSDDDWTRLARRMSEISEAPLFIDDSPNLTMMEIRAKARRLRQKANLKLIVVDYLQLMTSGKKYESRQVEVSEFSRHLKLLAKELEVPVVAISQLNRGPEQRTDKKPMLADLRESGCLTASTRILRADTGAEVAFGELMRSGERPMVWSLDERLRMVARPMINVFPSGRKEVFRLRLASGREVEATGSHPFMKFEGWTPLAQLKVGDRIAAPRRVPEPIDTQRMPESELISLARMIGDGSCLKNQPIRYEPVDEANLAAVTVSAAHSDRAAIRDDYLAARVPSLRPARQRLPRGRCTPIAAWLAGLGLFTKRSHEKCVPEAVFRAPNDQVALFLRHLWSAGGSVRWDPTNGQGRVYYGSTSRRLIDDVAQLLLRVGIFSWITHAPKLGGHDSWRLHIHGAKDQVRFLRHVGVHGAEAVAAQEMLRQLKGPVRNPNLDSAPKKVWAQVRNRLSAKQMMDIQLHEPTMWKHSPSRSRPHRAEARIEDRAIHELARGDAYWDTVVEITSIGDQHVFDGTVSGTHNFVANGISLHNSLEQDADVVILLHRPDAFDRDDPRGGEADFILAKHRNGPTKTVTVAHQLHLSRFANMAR

[13] = target: Cytochrome P450 3A4 (Homo sapiens, UniProt P08684);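 note: CYP3A4 tested as one member of a cytochrome P450 panel screen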
Cytochrome P450 3A4, sequence (P08684 whole entry): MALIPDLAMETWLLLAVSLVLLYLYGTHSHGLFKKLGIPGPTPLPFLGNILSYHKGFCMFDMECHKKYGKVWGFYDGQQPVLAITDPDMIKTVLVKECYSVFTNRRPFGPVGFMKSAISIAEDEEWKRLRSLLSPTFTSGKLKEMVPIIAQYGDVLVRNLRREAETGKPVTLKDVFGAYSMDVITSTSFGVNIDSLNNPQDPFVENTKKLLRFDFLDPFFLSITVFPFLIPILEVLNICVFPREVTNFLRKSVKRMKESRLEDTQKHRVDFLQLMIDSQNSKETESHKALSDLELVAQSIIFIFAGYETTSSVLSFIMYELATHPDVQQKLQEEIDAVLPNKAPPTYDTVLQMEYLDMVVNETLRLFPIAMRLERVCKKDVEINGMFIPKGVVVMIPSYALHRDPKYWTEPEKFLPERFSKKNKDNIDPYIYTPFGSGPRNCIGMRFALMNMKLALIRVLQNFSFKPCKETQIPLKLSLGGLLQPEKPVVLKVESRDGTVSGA

[14] = target: T4, Protein RecA (Mycobacterium tuberculosis, UniProt P9WHJ3); test: Fluorescence Cell-Free Homogeneous Dose Retest to Identify Inhibitors of RecA-Intein Splicing Activity. [Related pubchem assays (depositor defined):AID2097, AID2223, AID489010, AID492950]; type: functional
T4 sequence (P9WHJ3 whole entry): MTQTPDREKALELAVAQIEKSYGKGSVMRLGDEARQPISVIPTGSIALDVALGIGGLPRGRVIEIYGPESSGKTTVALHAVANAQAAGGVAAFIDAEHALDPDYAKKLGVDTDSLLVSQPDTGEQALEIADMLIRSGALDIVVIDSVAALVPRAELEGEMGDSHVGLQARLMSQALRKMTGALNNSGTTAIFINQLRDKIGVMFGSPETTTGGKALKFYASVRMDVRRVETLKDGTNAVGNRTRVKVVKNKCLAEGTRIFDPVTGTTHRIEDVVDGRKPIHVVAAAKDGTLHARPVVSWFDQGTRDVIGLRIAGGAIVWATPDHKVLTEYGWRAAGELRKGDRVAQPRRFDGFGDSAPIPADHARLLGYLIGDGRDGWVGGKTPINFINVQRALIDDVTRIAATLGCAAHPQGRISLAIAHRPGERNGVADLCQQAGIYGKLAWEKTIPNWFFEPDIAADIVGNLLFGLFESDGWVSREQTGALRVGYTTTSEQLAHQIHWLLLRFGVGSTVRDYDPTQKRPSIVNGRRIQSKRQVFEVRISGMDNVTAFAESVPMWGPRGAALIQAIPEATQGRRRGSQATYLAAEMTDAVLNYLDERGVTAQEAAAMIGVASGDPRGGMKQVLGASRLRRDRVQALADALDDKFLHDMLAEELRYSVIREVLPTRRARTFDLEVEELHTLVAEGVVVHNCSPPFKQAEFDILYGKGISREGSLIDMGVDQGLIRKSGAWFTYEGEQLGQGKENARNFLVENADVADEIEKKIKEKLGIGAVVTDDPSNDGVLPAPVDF

COCCNC(=O)Cc1c(C)c2c(cc(C)c3c(C(C)(C)C)coc32)oc1=O
EC50 [1]: > 120 µM (not active)
EC50 [2]: 10.1 µM (active)
EC50 [3]: > 120 µM (not active)

C[C@H]1CN([C@@H](C)CO)C(=O)Cc2cc(N(C)C)ccc2O[C@@H]1CN(C)Cc1ccc(-c2ccccc2)cc1
AC50 [4]: 2.21 µM (active)

O=C(Cc1ccc(-n2c(=O)[nH]c3ccccc3c2=O)cc1)N1CCN(c2cccc(Cl)c2)CC1
EC50 [5]: 23 µM (active)
AC50 [6]: 14.1 µM (inconclusive)
EC50 [7]: 25.3 µM (active)
AC50 [8]: 17.8 µM (inconclusive)
EC50 [9]: > 120 µM (not active)

C[C@@H]1CN([C@H](C)CO)C(=O)Cc2cc(NS(=O)(=O)c3ccccc3)ccc2O[C@@H]1CN(C)Cc1ccc(-c2ccccc2)cc1
AC50 [4]: 3.26 µM (active)

COc1ccc(-n2ccnc(SCC(=O)NC3CCCC3)c2=O)cc1OC
IC50 [10]: > 66 µM (inactive)
IC50 [11]: > 66 µM (inactive)

C[C@H](CO)N1C[C@H](C)[C@@H](CN(C)S(=O)(=O)c2ccccc2)Oc2c(NC(=O)Nc3ccccc3)cccc2C1=O
AC50 [4]: 20 µM (inactive)

COc1ccc(-c2csc(NC(=O)CSc3n[nH]c(N)n3)n2)cc1
IC50 [10]: > 66 µM (inactive)
IC50 [11]: > 66 µM (inactive)

COc1ccc2cc(-c3[nH]ncc3CN3CCCCO3)ccc2c1
EC50 [1]: > 120 µM (not active)
EC50 [2]: 25 µM (active)
EC50 [3]: > 60 µM (not active)

C[C@@H]1CN([C@@H](C)CO)C(=O)c2cccc(NC(=O)Nc3ccccc3)c2O[C@@H]1CN(C)S(=O)(=O)c1cccs1
AC50 [4]: 14.8 µM (active)

Cc1ccc(S(=O)(=O)N(C)C[C@H]2Oc3c(NC(=O)CCCCCC(=O)Nc4ccccc4N)cccc3C(=O)N([C@H](C)CO)C[C@@H]2C)cc1
AC50 [4]: 1.42 µM (active)

Cc1cc(Nc2nc3ccccc3nc2Cl)n(-c2ccccc2)n1
EC50 [1]: > 120 µM (not active)
EC50 [2]: > 120 µM (not active)
EC50 [3]: > 120 µM (not active)

O=C(CSc1nc(O)c(Cc2ccccc2)c(O)n1)c1ccccc1
EC50 [1]: 14.7 µM (active)
EC50 [2]: > 120 µM (not active)
EC50 [3]: 14.4 µM (active)

C[C@@H]1CN([C@@H](C)CO)C(=O)c2cccc(NC(=O)Nc3ccccc3)c2O[C@H]1CN(C)Cc1ccc(C(=O)Nc2ccccc2N)cc1
AC50 [4]: 0.869 µM (active)

Cc1ccc(NC(=O)CN2C(=O)S/C(=C/c3ccncc3)C2=O)cc1
IC50 [10]: > 66 µM (inactive)
IC50 [11]: > 66 µM (inactive)

Cc1cc(NS(=O)(=O)c2ccc(NC(=S)NC(=O)c3ccc(Br)cc3)cc2)no1
IC50 [10]: > 66 µM (inactive)
IC50 [11]: > 66 µM (inactive)

Cc1ccc(S(=O)(=O)Nc2ccc3c(c2)CC(=O)N([C@H](C)CO)C[C@@H](C)[C@@H](CN(C)Cc2ccc(Oc4ccccc4)cc2)O3)cc1
AC50 [4]: 2.03 µM (active)

O=C(NC(=S)NC1CCSC1=O)c1cccc([N+](=O)[O-])c1 (centres undefined)
IC50 [10]: > 66 µM (inactive)
IC50 [11]: > 66 µM (inactive)

C[C@@H]1CN([C@@H](C)CO)C(=O)c2cccc(NS(=O)(=O)c3ccc(Cl)cc3)c2O[C@@H]1CN(C)C(=O)Nc1ccc(C(F)(F)F)cc1
AC50 [4]: 3.58 µM (active)

C[C@@H]1CN([C@@H](C)CO)C(=O)c2cccc(NC(=O)CCCCCC(=O)Nc3ccccc3N)c2O[C@H]1CN(C)Cc1ccc(Cl)c(Cl)c1
AC50 [4]: 3.06 µM (active)

CCOC(=O)CC1=C(C(=O)OCC)C(c2ccc(C)o2)C(C#N)=C(N)O1 (centres undefined)
IC50 [10]: > 66 µM (inactive)
IC50 [11]: 32 µM (inactive)

Cn1c(-c2ccc(F)cc2)cnc1SCC(=O)Nc1ccccc1N1CCOCC1
EC50 [3]: 0.244 µM (active)

CCc1nnc2c3cnn(-c4ccccc4)c3ncn12
EC50 [1]: 5.12 µM (active)
EC50 [2]: 113 µM (active)
EC50 [3]: > 120 µM (not active)

CCCc1n[nH]c2c1C(c1ccncc1)C(C#N)=C(N)O2 (centres undefined)
AC50 [12]: 45.8 µM (active)
AC50 [13]: 39.8 µM (inconclusive)
AC50 [6]: 25.1 µM (inconclusive)
EC50 [14]: 17.6 µM (active)
AC50 [8]: 25.1 µM (inconclusive)

CCCc1cc(C(=O)NCC(C)C)no1
EC50 [1]: 14.8 µM (active)
EC50 [2]: 22.9 µM (active)

Cc1ccc(S(=O)(=O)Nc2ccc3c(c2)CC(=O)N([C@H](C)CO)C[C@@H](C)[C@@H](CN(C)Cc2ccc(C(=O)Nc4ccccc4N)cc2)O3)cc1
AC50 [4]: 3.25 µM (active)

C[C@H]1CN([C@@H](C)CO)C(=O)c2cc(NC(=O)Nc3cccc4ccccc34)ccc2O[C@H]1CN(C)Cc1ccc(-c2ccccc2)cc1
AC50 [4]: 5.22 µM (active)

CC(Cc1cccs1)NC(=O)NC1CCCCC1 (centres undefined)
EC50 [1]: > 60 µM (not active)
EC50 [2]: 68.9 µM (active)
EC50 [3]: 39.8 µM (active)

C[C@@H]1CN([C@@H](C)CO)C(=O)c2cccc(N(C)C)c2O[C@@H]1CN(C)Cc1ccc(Oc2ccccc2)cc1
AC50 [4]: 6.65 µM (active)

C[C@@H]1CN([C@@H](C)CO)C(=O)c2cccc(NC(=O)CCCCCC(=O)Nc3ccccc3N)c2O[C@@H]1CN(C)Cc1ccc(Oc2ccccc2)cc1
AC50 [4]: 2.17 µM (active)

C[C@@H]1CN([C@@H](C)CO)C(=O)Cc2cc(NC(=O)Cc3ccccc3)ccc2O[C@@H]1CN(C)Cc1ccc(C(=O)Nc2ccccc2N)cc1
AC50 [4]: 3.09 µM (active)

CC(=O)Nc1ccc(SCC(=O)Nc2ccccc2Oc2ccccc2)cc1
IC50 [10]: > 66 µM (inactive)
IC50 [11]: > 66 µM (inactive)
